{
  "source": "patent US20120077753A1",
  "about": "“JNK INHIBITORS FOR USE IN TREATING SPINAL MUSCULAR ATROPHY” (priority 2009, published 2012)",
  "key": {"[1]": {"target": "JNK3 (Homo sapiens, UniProt P53779)", "sequence (P53779 whole entry, species assumed)": "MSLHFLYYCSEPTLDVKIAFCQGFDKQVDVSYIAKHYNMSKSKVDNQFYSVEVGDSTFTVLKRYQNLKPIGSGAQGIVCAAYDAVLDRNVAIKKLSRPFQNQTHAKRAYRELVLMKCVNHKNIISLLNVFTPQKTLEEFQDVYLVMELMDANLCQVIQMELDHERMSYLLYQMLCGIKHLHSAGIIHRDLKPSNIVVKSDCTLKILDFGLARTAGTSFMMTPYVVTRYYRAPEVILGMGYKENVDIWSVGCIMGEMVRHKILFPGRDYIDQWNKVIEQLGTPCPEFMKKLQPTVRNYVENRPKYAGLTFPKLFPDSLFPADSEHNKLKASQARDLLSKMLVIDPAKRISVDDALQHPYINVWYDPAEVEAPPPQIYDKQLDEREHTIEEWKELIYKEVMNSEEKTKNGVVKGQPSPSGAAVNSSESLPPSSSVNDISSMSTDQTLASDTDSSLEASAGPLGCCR", "conditions": "cited from earlier work"}, "[2]": {"system": "phosphorylation of c-Jun", "assay": "Phospho-c-Jun staining in primary neurons lacking SMN", "assay_type": "cell-based, mice", "conditions": "neurons lacking SMN (siRNA-Smn), vs untreated with JNK inhibitor", "experimental": "(§1) Primary neurons transfected with scrambled siRNA (Control) and SMN specific siRNA (siRNA-Smn) were treated with DMSO or SP600125 after 36 h (post-transfection). Neurons were incubated for additional 60 h, fixed and stained with antibodies to Tubulin and phospho-c-Jun. Stained neurons were examined by confocal microscopy. To determine whether JNK activity is required for neurodegeneration, the effect of JNK inhibitor (SP600125) was examine on degeneration of neurons caused by SMN-deficiency. […] The knockdown of SMN neurons treated with solvent (DMSO) results in degeneration of neurons as expected. […] To determine whether the neuroprotection is a result of JNK inhibition achieved by treatment of SP600125, the phosphorylation of c-Jun was examined. […] To determine whether activation of JNK is normal in neurons treated with siRNA and JNK inhibitor, phospho-JNK was examined because JNK is activated by phosphorylation."}, "[3]": {"system": "tumor necrosis factor-α", "conditions": "animal studies; cited from earlier work"}, "[4]": {"system": "Primary neurons", "assay": "Degeneration of primary neurons transfected with siRNA-Smn or scrambled siRNA (tubulin staining, confocal microscopy)", "assay_type": "cell-based, mice", "experimental": "as §1, with “Primary neurons transfected with scrambled siRNA (Control) and SMN specific siRNA (siRNA-Smn) were treated with DMSO or SP600125 after 36 h (post-transfection). Neurons were incubated for additional 60 h, fixed and stained with antibodies to Tubulin and phospho-JNK. Stained neurons were examined by confocal microscopy. Primary” for “Primary”"}, "[5]": {"system": "phospho-JNK", "assay": "Phospho-JNK staining in primary neurons lacking SMN", "assay_type": "cell-based, mice", "conditions": "neurons treated with siRNA+SP600125", "experimental": "as §1, with “phospho-JNK.” for “phospho-c-Jun.”"}, "[6]": {"system": "CD4+ CD8+ thymocytes", "conditions": "animal studies; cited from earlier work"}, "[7]": {"system": "a range of kinases and enzymes", "conditions": "cited from earlier work"}, "[8]": {"system": "phosphorylation of c-Jun", "conditions": "in cells; cited from earlier work"}, "[9]": {"target": "JNK-1, -2, and -3", "conditions": "ATP-competitive reversible inhibitor; cited from earlier work"}},
  "data": [
    {"smiles": "O=C1c2c(CCCCCNc3ccccc3)cccc2-c2n[nH]c3cccc1c23", "note": "[7-(5-7V-Phenylaminopentyl)-2H-anthra[1,9-cd]pyrazol-6-one]", "values": [
      {"measurement": "JNK3 selectivity", "setting": "[1]", "value": "selective inhibitors of JNK3"}
    ]},
    {"smiles": "Cc1ccc(OCCCCCNc2cccc3c2C(=O)c2cccc4[nH]nc-3c24)cc1", "note": "[7-(5-(p-Tolyloxy)pentyl)amino-2H-anthra[1,9-cd]pyrazol-6-one]", "values": [
      {"measurement": "JNK3 selectivity", "setting": "[1]", "value": "selective inhibitors of JNK3"}
    ]},
    {"smiles": "O=C(NCCCCCCCNc1cccc2c1C(=O)c1cccc3[nH]nc-2c13)c1ccccc1", "note": "[7-(7-7V-Benzoylaminoheptyl)amino-2H-anthra[1,9-cd]pyrazol-6-one]", "values": [
      {"measurement": "JNK3 selectivity", "setting": "[1]", "value": "selective inhibitors of JNK3"}
    ]},
    {"smiles": "O=C1c2ccccc2-c2n[nH]c3cccc1c23", "note": "[SP600125, Anthra[1,9-cd]pyrazol-6(2H)-on]", "values": [
      {"measurement": "phosphorylation of c-Jun", "setting": "[2]", "value": "marked reduction in the phosphorylation of c-Jun"},
      {"measurement": "bacterial lipopolysaccharide-induced expression of tumor necrosis factor-α", "setting": "[3]", "value": "inhibited"},
      {"measurement": "neuron degeneration in control experiments", "setting": "[4]; control neurons, SP600125", "value": "did not cause neuron degeneration"},
      {"measurement": "degeneration of neurons caused by SMN-deficiency", "setting": "[4]; neurons transfected with siRNA-Smn, inhibitor added 36 h post-transfection, additional 60 h, vs solvent (DMSO)", "value": "marked reduction in degeneration"},
      {"measurement": "phospho-JNK (JNK activation)", "setting": "[5]", "value": "presence of phospho-JNK"},
      {"measurement": "anti-CD3-induced apoptosis of CD4+ CD8+ thymocytes", "setting": "[6]", "value": "prevented"},
      {"measurement": "selectivity vs. a range of kinases and enzymes tested", "setting": "[7]", "value": "> 20", "unit": "fold"},
      {"measurement": "inhibition of the phosphorylation of c-Jun", "setting": "[8]", "value": "dose-dependent inhibition"},
      {"measurement": "Ki", "setting": "[9]", "value": 190, "unit": "nM"}
    ]}
  ]
}
